# Measurements published in publication PMC11521183 (Emerging Infectious Diseases, 2024).
# Test system: reference seasonal A(H3N2) viruses A/Louisiana/50/2017 and A/Louisiana/49/2017
# Experiment: microbe, parasite or virus in culture
# Type: cell-based, influenza A virus
# Conditions: read-out: Mean EC50 + SD
compound,measurement,value
"O=C1c2c(O)c(=O)ccn2N([C@@H]2c3ccccc3SCc3c2ccc(F)c3F)[C@@H]2COCCN12 [baloxavir, baloxavir acid]",EC50,0.0141 µM
